Where two headings read alike, the source gives them in different places.
Assays:
[1] = target: T1, human soluble ENPP1 (Homo sapiens, UniProt P22413); assay: ENPP1 activity assay using p-Nitrophenyl-5′-TMP as a substrate; format: biochemical
T1 construct: 20 ng of human soluble ENPP1
T1 sequence (P22413 103-925 limits assumed): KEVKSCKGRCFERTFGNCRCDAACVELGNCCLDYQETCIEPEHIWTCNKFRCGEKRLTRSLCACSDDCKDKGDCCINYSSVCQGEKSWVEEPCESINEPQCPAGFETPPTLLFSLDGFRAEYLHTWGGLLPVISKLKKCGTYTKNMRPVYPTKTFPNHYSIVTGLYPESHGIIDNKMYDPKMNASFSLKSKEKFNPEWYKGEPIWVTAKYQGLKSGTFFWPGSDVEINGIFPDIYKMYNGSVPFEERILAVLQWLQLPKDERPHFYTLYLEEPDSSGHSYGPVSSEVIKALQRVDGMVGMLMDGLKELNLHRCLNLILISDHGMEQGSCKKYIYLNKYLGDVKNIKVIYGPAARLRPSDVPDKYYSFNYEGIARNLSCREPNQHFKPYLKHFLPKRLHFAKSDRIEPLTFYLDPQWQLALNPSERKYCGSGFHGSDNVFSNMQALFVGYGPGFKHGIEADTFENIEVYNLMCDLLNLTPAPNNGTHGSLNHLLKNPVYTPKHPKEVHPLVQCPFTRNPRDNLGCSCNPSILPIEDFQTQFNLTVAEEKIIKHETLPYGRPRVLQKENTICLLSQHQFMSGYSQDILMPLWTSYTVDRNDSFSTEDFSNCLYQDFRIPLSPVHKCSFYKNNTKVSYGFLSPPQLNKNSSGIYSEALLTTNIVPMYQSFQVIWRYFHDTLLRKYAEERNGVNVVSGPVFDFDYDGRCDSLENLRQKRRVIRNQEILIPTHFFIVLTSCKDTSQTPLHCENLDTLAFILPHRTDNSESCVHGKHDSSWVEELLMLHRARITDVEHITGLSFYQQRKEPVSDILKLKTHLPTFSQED
Outline: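 Human soluble ENPP1 (20 ng) was preincubated with inhibitor for 30 min at room temperature. TMP-pNP was then added as a 2 mM […] solution and incubated 1 h at RT, with p-nitrophenol formation read by OD. IC50 came from four-parameter fits of % inhibition relative to no-inhibitor and blank controls.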

[2] = target: T1, human soluble ENPP1; assay: ENPP1 activity assay using p-Nitrophenyl-5′-AMP as a substrate; format: biochemical
Outline: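 Human soluble ENPP1 (35 ng) preincubated with inhibitor 30 min at RT, then p-nitrophenyl-5′-AMP added (3 mM solution, 2× final) and incubated 1 h at RT. p-Nitrophenolate release read at OD 405 nm; % inhibition vs no-inhibitor and blank controls, IC50 from four-parameter fit.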

[3] = target: T2, ENPP-1, MDA-MB-231 cells (Homo sapiens, UniProt P22413); assay: cell-based; settings: for inhibition at 20 µM: MDA-MB-231, read-out: % Inhibition (at 20 μM)
T2 sequence (P22413 1-925): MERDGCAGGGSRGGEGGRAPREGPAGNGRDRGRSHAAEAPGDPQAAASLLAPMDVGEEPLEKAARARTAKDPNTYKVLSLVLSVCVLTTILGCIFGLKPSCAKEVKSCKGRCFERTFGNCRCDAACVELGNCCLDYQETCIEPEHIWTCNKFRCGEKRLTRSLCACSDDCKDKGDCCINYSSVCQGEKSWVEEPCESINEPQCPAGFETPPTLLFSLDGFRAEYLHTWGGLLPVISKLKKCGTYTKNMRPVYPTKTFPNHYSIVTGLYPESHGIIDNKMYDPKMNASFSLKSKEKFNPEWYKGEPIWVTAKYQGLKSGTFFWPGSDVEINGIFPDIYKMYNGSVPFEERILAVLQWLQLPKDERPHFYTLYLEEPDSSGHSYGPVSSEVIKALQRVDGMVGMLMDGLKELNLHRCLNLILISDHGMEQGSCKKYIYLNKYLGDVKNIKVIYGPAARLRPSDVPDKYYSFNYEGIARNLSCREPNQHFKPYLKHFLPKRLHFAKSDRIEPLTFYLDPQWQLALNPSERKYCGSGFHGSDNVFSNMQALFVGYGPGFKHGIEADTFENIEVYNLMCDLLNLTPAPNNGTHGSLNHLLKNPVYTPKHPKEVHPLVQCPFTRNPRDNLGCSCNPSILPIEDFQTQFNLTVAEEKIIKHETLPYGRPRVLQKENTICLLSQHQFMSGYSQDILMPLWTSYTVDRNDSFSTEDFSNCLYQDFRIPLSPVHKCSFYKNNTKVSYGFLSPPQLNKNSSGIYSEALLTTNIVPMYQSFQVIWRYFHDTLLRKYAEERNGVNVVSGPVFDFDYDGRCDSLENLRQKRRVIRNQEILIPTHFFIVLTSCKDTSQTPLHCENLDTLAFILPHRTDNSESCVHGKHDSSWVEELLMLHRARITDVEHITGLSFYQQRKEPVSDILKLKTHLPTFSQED

[4] = target: T3, ENPP-1, HEK293 cells (Homo sapiens, UniProt P22413); assay: Cellular enzymatic assay of ENPP-1 inhibitors using TMP-pNP as substrate, HEK 293 cells; format: cell-based
T3 construct: ENPP-1 were mainly expressed on the surface of cell membrane; endogenous in cells; host or cells: HEK293
T3 sequence (P22413 1-925): T2 sequence (P22413 1-925)
Procedure: (§1) ENPP-1 were mainly expressed on the surface of cell membrane where it hydrolytes 2′3′-cGAMP to generate 5′-GMP and 5′-AMP. ENPP-1 also has the ability to hydrolyzes artificial phosphoric acid ester TMP-pNP to nucleotide-5′-monophosphate and p-nitrophcnol there, which is a chromogenic product.
(§2) 8 point of different concentrations of each inhibitor were prepared with the final assay concentrations starting at 20 μM. 3× series dilution by DMEM medium without FBS was applied. Prior to adding inhibitors, 75000 cells per well were incubated at 37° C., 5% CO2 in DMEM for 24 hours. After removing the supernatant medium, 50 μL inhibitor solution was added into each well with cultured cells and incubate at 37° C., 5% CO2 for 60 minutes.
(§3) The IC50 values for percent inhibition versus compound concentration are determined by fitting the inhibition curves using a four-parameter variable slope model in GraphPad Prism® 8.

[5] = target: T4, ENPP-1, Saos-2 cells (Homo sapiens, UniProt P22413); assay: Cellular enzymatic assay of ENPP-1 inhibitors using TMP-pNP as substrate, Saos-2 cells; format: cell-based; settings: for inhibition at 20 µM: SAOS-2, read-out: % Inhibition (@20 μM)
T4 construct: ENPP-1 were mainly expressed on the surface of cell membrane; endogenous in cells; host or cells: Saos-2
T4 sequence (P22413 1-925): T2 sequence (P22413 1-925)
Procedure: as §1, §2, §3

[6] = Liver microsome stability, mouse; format: in vitro ADME; settings: for Hepatic extraction ratio Re / microsomal CLint: Mouse liver microsome; for Half-life t1/2 (min) / half-life: Mouse liver microsome 0.5 mg/mL, NADPH and UDPGA, 37° C.; for half-life / microsomal CLint: liver microsomes; for half-life: read-out: Half-life t1/2; for microsomal CLint: read-out: Intrinsic clearance Cl′int, (μL/min/mg protein)
Procedure: (§4) Liver microsome assay was used to evaluate the metabolic stability of I-VI. The test article at the concentration of […] was incubated with 0.5 mg/mL liver microsome in the presence of NADPH and UDPGA as the co-factors for 0, 15, 30, 45 and 60 minutes. The incubation was carried out at 37° C. with 5% CO2 and saturating humidity. Disappearance of the test article was monitored by LC/MS/MS. the disappearance half-life (t1/2), intrinsic clearance and hepatic extraction ratio were determined.

[7] = Liver microsome stability, human; format: in vitro ADME; settings: for Hepatic extraction ratio Re: Human liver microsome; for Half-life t1/2 (min): Human liver microsome 0.5 mg/mL, NADPH and UDPGA, 37° C.
Procedure: as §4

[8] = tested on: cGAMP activated THP-1 cells; assay: ENPP1 inhibitors screening on cGAMP activated THP-1 cells (IFN-β ELISA); format: cell-based; settings: THP-1 cells with 2′3′-cGAMP, 24 hours, FIGS. 1A-1E
Procedure: THP-1 cells from bulk cultures were counted and suspended in RPMI 1640, 20% FBS, 2.5 mM L-alanyl-L-glutamine at a concentration of 5.5×10^6 cells/mL. The THP-1 cells were subsequently seeded into 96 well round bottom plates 180 μL/well (1×10^6 cells per well), incubated for 1 hour at 37° C., 5% CO2.
Test compounds were screened in triplicate on THP-1 cells at a final concentration of 10 μM. A working solutions at 0.2 mM. Each well contains 180 μL of THP-1 cell suspension, 10 μL (30 μM, 40 μM or 50 μM) 2′3′-cGAMP (InvivoGen, catalog #tlrl-nacga23) solution (600 μM, 800 μM or 1000 μM) and 10 μL test compound working solution. Incubate for 1 hour.
Vehicle control wells contain 2′3′-cGAMP at concentrations of […] and 50 μM without any test compound. Positive control, 2′3′-cGAMP or 2′,3′-cGAM(PS)2 (Rp/Sp) (InvivoGen, cat #tlrl-nacga2srs) at 40 μM and 80 μM (final concentration).
The final assay volume were 200 μL/well contains: 1) THP-1 cells=180 μL, 2) test compounds=10 μL, 3) 2′3′-cGAMP or 2′3′-cGAM(PS)2 (Rp/Sp) or vehicle control=10 μL.
After incubation for 24 hours at 37° C., 5% CO2, the supernatants were harvested at 200×g for 10 minutes. Cell culture supernatants were then transferred to a clean plate and stored at −80° C. until ready to analyze for IFN-β levels. The IFN-β levels in cell culture supernatants were determined by ELISA kits (PBL Assay Science, catalog #41410) according to the manufacturer's instructions.
The % increase measured for IFN-β in cells treated by the test compounds 12, 48, 89, 103 and 121 relative to that of untreated cells were tested (as shown in FIGS. 1A-1E).

[9] = HEK293, read-out: Inhibition (at 20 μM)

Compound: COc1cc2ncc3[nH]c(=O)n(Cc4ccc(S(N)(=O)=O)cc4)c3c2cc1OC [Compound 1, 4-((7,8-dimethoxy-2-oxo-2,3-dihydro-1H-imidazo[4,5-c]quinolin-1-yl)methyl)benzenesulfonamide]
- IC50 [1]: 1.7 nM
- IC50 [2]: 5.9 nM
- IC50 [3]: 2900 nM
- inhibition at 20 µM [3]: 50%
- inhibition at 20 µM [4, 9]: 19%
- inhibition at 20 µM [5]: 32%
- Hepatic extraction ratio Re [6]: 0
- Half-life t1/2 (min) [6]: ∞

Compound: COc1cc2ncc3ncn(Cc4ccc(S(N)(=O)=O)nc4)c3c2cc1OC [Compound 10, 5-((7,8-dimethoxy-1H-imidazo[4,5-c]quinolin-1-yl)methyl)pyridine-2-sulfonamide]
- IC50 [1]: 1.1 nM
- IC50 [2]: 27 nM
- Hepatic extraction ratio Re [7]: 0
- Half-life t1/2 (min) [7]: ∞

Compound: COc1cc2ncc3ncn([C@H](C)c4ccc(S(N)(=O)=O)cc4)c3c2cc1OC [Compound 11a, (R)-4-(1-(7,8-dimethoxy-1H-imidazo[4,5-c]quinolin-1-yl)ethyl)benzenesulfonamide]
- IC50 [1]: 0.88 nM
- IC50 [2]: 2.5 nM
- IC50 [3]: 600 nM
- inhibition at 20 µM [3]: 79%
- IC50 [4]: 2100 nM
- inhibition at 20 µM ([4]; HEK293, HEK 293 cells, at 20 μM, read-out: Inhibition (at 20 μM)): 84%
- IC50 [5]: 1200 nM
- inhibition at 20 µM [5]: 87%
- Hepatic extraction ratio Re [6]: 0.85
- half-life [6]: 11 min
- microsomal CLint [6]: 131 µL/min/mg

Compound: COc1ccc2c(c1)ncc1[nH]c(=O)n(Cc3ccc(S(N)(=O)=O)cc3)c12 [Compound 35, 4-((7-methoxy-2-oxo-2,3-dihydro-1H-imidazo[4,5-c]quinolin-1-yl)methyl)benzenesulfonamide]
- IC50 [1]: 0.37 nM
- IC50 [2]: 35 nM
- IC50 [3]: 1500 nM
- inhibition at 20 µM [3]: 73%
- IC50 [4]: 3400 nM
- inhibition at 20 µM [4, 9]: 51%
- IC50 [5]: 5600 nM
- inhibition at 20 µM [5]: 76%
- Hepatic extraction ratio Re [6]: 0
- Half-life t1/2 (min) [6]: ∞
- Hepatic extraction ratio Re [7]: 0
- Half-life t1/2 (min) [7]: ∞

Compound: COc1ccc2ncc3ncn(Cc4ccc(S(N)(=O)=O)cc4)c3c2c1 [Compound 36, 4-((8-methoxy-1H-imidazo[4,5-c]quinolin-1-yl)methyl)benzenesulfonamide]
- IC50 [1]: 3.1 nM
- IC50 [2]: 36 nM
- IC50 [3]: 1500 nM
- inhibition at 20 µM [3]: 66%
- IC50 [4]: 5000 nM
- inhibition at 20 µM [4, 9]: 57%
- IC50 [5]: 2000 nM
- inhibition at 20 µM [5]: 48%
- Hepatic extraction ratio Re [6]: 0.55
- half-life [6]: 49 min
- microsomal CLint [6]: 28 µL/min/mg

Compound: COc1ccc2c(ncc3[nH]c(=O)n(Cc4c(F)cc(S(N)(=O)=O)cc4F)c32)n1 [Compound 103, 3,5-difluoro-4-((7-methoxy-2-oxo-2,3-dihydro-1H-imidazo[4,5-c][1,8]naphthyridin-1-yl)methyl)benzenesulfonamide]
- IC50 [1]: 0.09 nM
- IC50 [2]: 0.06 nM
- IC50 [3]: 34 nM
- inhibition at 20 µM [3]: 87%
- % increase measured for IFN-β relative to that of untreated cells [8]: potently increased the IFN-β levels at very low concentrations

Compound: COc1ccc2c(ncc3[nH]c(=O)n(Cc4ccc(P(=O)(O)O)c(F)c4)c32)n1 [Compound 121, (2-fluoro-4-((7-methoxy-2-oxo-2,3-dihydro-1H-imidazo[4,5-c][1,8]naphthyridin-1-yl)methyl)phenyl)phosphonic acid]
- IC50 [1]: 9.4 nM
- IC50 [2]: 31 nM
- IC50 [3]: 8.2 nM
- inhibition at 20 µM [3]: 91%
- % increase measured for IFN-β relative to that of untreated cells [8]: potently increased the IFN-β levels at very low concentrations

Reference: patent US11673889B2, “Substituted imidazo[4,5-c][1,8]naphthyridines as phosphodiesterase inhibitors” (Nanjing Zhengxiang Pharmaceuticals Co., Ltd., priority 2019, dated 2023)
